This assay deals with T1, human mGluR5 (Homo sapiens, UniProt P41594).
T1 construct: expressed in transfected cells; host or cells: HEK293 cells stably expressing rat GLAST (EAAT1), stably transfected with pcDNAzeo3.1 carrying synthetic human mGluR5 DNA; zeocin-selected single clones
T1 sequence (P41594 21-1212): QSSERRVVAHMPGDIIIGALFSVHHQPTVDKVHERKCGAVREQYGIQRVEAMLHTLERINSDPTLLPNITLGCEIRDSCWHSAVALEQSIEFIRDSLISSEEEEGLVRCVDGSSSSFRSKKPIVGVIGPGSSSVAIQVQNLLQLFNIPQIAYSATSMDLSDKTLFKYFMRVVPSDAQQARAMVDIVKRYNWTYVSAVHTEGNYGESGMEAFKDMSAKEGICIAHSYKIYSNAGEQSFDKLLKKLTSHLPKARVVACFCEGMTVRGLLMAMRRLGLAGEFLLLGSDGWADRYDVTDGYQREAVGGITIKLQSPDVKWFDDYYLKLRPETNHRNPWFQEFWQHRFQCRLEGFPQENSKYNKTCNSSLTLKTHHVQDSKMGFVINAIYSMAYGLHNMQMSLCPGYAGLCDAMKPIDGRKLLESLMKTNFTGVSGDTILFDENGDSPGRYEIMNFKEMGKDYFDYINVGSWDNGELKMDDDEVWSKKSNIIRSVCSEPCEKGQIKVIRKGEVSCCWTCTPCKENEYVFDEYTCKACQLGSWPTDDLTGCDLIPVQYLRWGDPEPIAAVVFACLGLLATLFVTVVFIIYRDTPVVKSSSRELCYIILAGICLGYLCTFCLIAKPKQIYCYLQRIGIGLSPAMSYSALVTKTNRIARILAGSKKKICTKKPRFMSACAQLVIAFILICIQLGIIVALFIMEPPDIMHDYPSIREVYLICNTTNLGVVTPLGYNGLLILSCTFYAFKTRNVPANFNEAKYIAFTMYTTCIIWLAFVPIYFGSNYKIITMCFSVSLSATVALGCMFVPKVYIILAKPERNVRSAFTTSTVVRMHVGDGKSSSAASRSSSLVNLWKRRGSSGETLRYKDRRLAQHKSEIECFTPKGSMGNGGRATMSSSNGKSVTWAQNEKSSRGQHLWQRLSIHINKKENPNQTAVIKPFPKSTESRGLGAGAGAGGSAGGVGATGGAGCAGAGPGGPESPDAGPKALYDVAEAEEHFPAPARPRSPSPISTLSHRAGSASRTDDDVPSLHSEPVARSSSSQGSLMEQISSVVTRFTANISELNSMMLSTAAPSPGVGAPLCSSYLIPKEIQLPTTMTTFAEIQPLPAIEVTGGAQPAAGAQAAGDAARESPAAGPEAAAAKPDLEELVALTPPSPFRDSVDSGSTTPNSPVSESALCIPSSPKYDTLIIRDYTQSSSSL
Briefly: In vitro cell-based FLIPR calcium assay for positive modulation of the activation of mGluR5 by glutamate (PAM EC50). As to conditions: HEK293/GLAST cells expressing recombinant human mGluR5; FLIPR calcium signal; glutamate added at its EC20; read-out: mGluR5 PAM EC50. An outline of the steps: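 HEK293/GLAST cells stably expressing mGluR5 were loaded with calcium-sensitive dye (25 °C, 45–60 min) in HBSS/20 mM HEPES. Test compounds were assayed in buffer containing glutamate at that day's EC20, with FLIPR fluorescence recorded. Controls contained 0.3% DMSO without compound.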
As to `O=c1c2ccc(C#Cc3cccc(F)c3)cc2nc2n1CCN(Cc1ccccc1)CC2` [Example 8.9, 3-benzyl-8-((3-fluorophenyl)ethynyl)-2,3,4,5-tetrahydro-[1,4]diazepino[7,1-b]quinazolin-11(1H)-one], the EC50 (commonly the midpoint of the concentration-response curve) was in the range of 10 to 30 nM.

With `COCCN1CCc2nc3cc(C#Cc4cccc(F)c4)ccc3c(=O)n2CC1` [Example 8.10, 8-((3-fluorophenyl)ethynyl)-3-(2-methoxyethyl)-2,3,4,5-tetrahydro-[1,4]diazepino[7,1-b]quinazolin-11(1H)-one], the concentration for a half-maximal effect (EC50) is 100 to 300 nM.

Regarding `O=c1c2ccc(C#Cc3cccc(F)c3)cc2nc2n1CCN(C1CCC1)CC2` [Example 8.11, 3-cyclobutyl-8-((3-fluorophenyl)ethynyl)-2,3,4,5-tetrahydro-[1,4]diazepino[7,1-b]quinazolin-11(1H)-one], the EC50 fell in the range of 300 to 1000 nM.

For `C=CCN1CCc2nc3cc(C#Cc4cccc(F)c4)ccc3c(=O)n2CC1` [Example 8.12, 3-allyl-8-((3-fluorophenyl)ethynyl)-2,3,4,5-tetrahydro-[1,4]diazepino[7,1-b]quinazolin-11(1H)-one], the 50% effective concentration (EC50) is 10 to 30 nM.

Take `O=c1c2ccc(C#Cc3cccc(F)c3)cc2nc2n1CCN(C1CCOC1)CC2` (centres unmarked) [Example 8.13, 8-((3-fluorophenyl)ethynyl)-3-(tetrahydrofuran-3-yl)-2,3,4,5-tetrahydro-[1,4]diazepino[7,1-b]quinazolin-11(1H)-one acetonitrile]: the EC50 is 100 to 300 nM.

With `N#CCN1CCc2nc3cc(C#Cc4cccc(F)c4)ccc3c(=O)n2CC1` [Example 8.14, 2-(8-((3-fluorophenyl)ethynyl)-11-oxo-1,2,4,5-tetrahyrdro-[1,4]diazepino[7,1-b]quinazolin-3(11H)-yl)acetonitrile], the EC50 fell in the range of 10 to 30 nM.

In the case of `CNC(=O)CN1CCc2nc3cc(C#Cc4cccc(F)c4)ccc3c(=O)n2CC1` [Example 8.15, 2-(8-((3-fluorophenyl)ethynyl)-11-oxo-1,2,4,5-tetrahydro-[1,4]diazepino[7,1-b]quinazolin-3(11H)-yl)-N-methylacetamide], the EC50 lay within 100 to 300 nM.

On to `O=c1c2ccc(C#Cc3cccc(F)c3)cc2nc2n1CCN(CC1CCCO1)CC2` (centres unmarked) [Example 8.16, 8-((3-fluorophenyl)ethynyl)-3-((tetrahydrofuran-2-yl)methyl)-2,3,4,5-tetrahydro-[1,4]diazepino[7,1-b]quinazolin-11(1H)-one], for which the EC50 was 100 to 300 nM.

For the compound `CC(=O)N1CCc2nc3cc(C#Cc4cccc(F)c4)ccc3c(=O)n2CC1` [Example 8.17, 3-acetyl-8-((3-fluorophenyl)ethynyl)-2,3,4,5-tetrahydro-[1,4]diazepino[7,1-b]quinazolin-11(1H)-one], the EC50 lay within 100 to 300 nM.

`O=CN1CCc2nc3cc(C#Cc4cccc(F)c4)ccc3c(=O)n2CC1` [Example 8.18, 8-((3-fluorophenyl)ethynyl)-11-oxo-1,2,4,5-tetrahydro-[1,4]diazepino[7,1-b]quinazoline-3(11H)-carbaldehyde]: the EC50 fell in the range of 30 to 100 nM.

With `O=c1c2ccc(C#Cc3ccccn3)cc2nc2n1CCN(CCC(F)(F)F)CC2` [Example 8.21, 8-(pyridin-2-ylethynyl)-3-(3,3,3-trifluoropropyl)-2,3,4,5-tetrahydro-[1,4]diazepino[7,1-b]quinazolin-11(1H)-one], the EC50 is 100 to 300 nM.

For `C#CCN1CCc2nc3cc(C#Cc4ccccn4)ccc3c(=O)n2CC1` [Example 8.22, 3-(prop-2-yn-1-yl)-8-(pyridin-2-ylethynyl)-2,3,4,5-tetrahydro-[1,4]diazepino[7,1-b]quinazolin-11(1H)-one], the EC50 is 30 to 100 nM.

Regarding `N#CCN1CCc2nc3cc(C#Cc4ccccn4)ccc3c(=O)n2CC1` [Example 8.23, 2-(11-oxo-8-(pyridin-2-ylethynyl)-1,2,4,5-tetrahydro-[1,4]diazepino[7,1-b]quinazolin-3(11H)-yl)acetonitrile], the EC50 was in the range of 30 to 100 nM.

Take `CC(C#N)N1CCc2nc3cc(C#Cc4ccccn4)ccc3c(=O)n2CC1` (centres unmarked) [Example 8.24, 2-(11-oxo-8-(pyridin-2-ylethynyl)-1,2,4,5-tetrahydro-[1,4]diazepino[7,1-b]quinazolin-3(11H)-yl)propanenitrile]: the EC50 fell in the range of 300 to 1000 nM.

On to `O=c1c2ccc(C#Cc3ccccn3)cc2nc2n1CCCCN2` [Example 8.25, 10-(pyridin-2-ylethynyl)-2,3,4,5-tetrahydro-[1,3]diazepino[2,1-b]quinazolin-7(1H)-one], for which the EC50 is 10 to 30 nM.

Take `O=c1c2ccc(C#Cc3ccccn3)cc2nc2n1C1CCN(CC1)C2` [Example 8.26]: the EC50 lay in the range of 100 to 300 nM.

In the case of `CC1Cc2nc3cc(C#Cc4ccccn4)ccc3c(=O)n2CCN1C` (centres unmarked) [Example 8.28, 3,4-dimethyl-8-(pyridin-2-ylethynyl)-2,3,4,5-tetrahydro-[1,4]diazepino[7,1-b]quinazolin-11(1H)-one], the EC50 was 300 to 1000 nM.

Regarding `CC1Cn2c(nc3cc(C#Cc4ccccn4)ccc3c2=O)CCN1C` (centres unmarked) [Example 8.30, 2,3-dimethyl-8-(pyridin-2-ylethynyl)-2,3,4,5-tetrahydro-[1,4]diazepino[7,1-b]quinazolin-11(1H)-one], the EC50 was in the range of 100 to 300 nM.

In the case of `CN1C2CCC1Cn1c(nc3cc(C#Cc4cccc(F)c4)ccc3c1=O)C2` (centres unmarked) [Example 9.1, 3-((3-fluorophenyl)ethynyl)-14-methyl-8,9,10,11-tetrahydro-6H-7,10-epiminoazocino[2,1-b]quinazolin-13(7H)-one], the EC50 fell in the range of 300 to 1000 nM.

Take `O=c1c2ccc(C#Cc3ccccn3)cc2nc2n1CC1CCCCN1CC2` (centres unmarked) [Example 9.2, 3-(pyridin-2-ylethynyl)-9,10,11,12,12a,13-hexahydro-6H-pyrido[2′,1′:3,4][1,4]diazepino[7,1-b]quinazolin-15(7H)-one]: the EC50 was 100 to 300 nM.

With `O=c1c2ccc(C#Cc3ccccn3)cc2nc2n1CC1CCCN1CC2` (centres unmarked) [Example 9.4, 9-(pyridin-2-ylethynyl)-2,3,5,6,14,14a-hexahydropyrrolo[2′,1′:3,4][1,4]diazepino[7,1-b]quinazolin-12(1H)-one], the EC50 fell in the range of 30 to 100 nM.

In the case of `O=c1c2ccc(C#Cc3ccccn3)cc2nc2n1CCN1CCCC1C2` (centres unmarked) [Example 9.5, 11-(pyridin-2-ylethynyl)-2,3,5,6,14,14a-hexahydropyrrolo[1′,2′:4,5][1,4]diazepino[7,1-b]quinazolin-8(1H)-one], the EC50 was 100 to 300 nM.

Consider `CN1CCCn2c(nc3cc(C#Cc4ccc(F)cc4)ccc3c2=O)CC1` [Example 10.1, 11-((4-fluorophenyl)ethynyl)-3-methyl-3,4,5,6-tetrahydro-1H-[1,5]diazocino[2,1-b]quinazolin-8(2H)-one], for which the EC50 lay within 10 to 30 nM.

Take `CN1CCCc2nc3cc(C#Cc4ccc(F)cc4)ccc3c(=O)n2CC1` [Example 10.2, 9-((4-fluorophenyl)ethynyl)-3-methyl-3,4,5,6-tetrahydro-1H-[1,4]diazocino[8,1-b]quinazolin-12(2H)-one]: the EC50 was in the range of 30 to 100 nM.

Turning to `CN1CCCn2c(nc3cc(C#Cc4cccc(F)c4)ccc3c2=O)CC1` [Example 10.3, 11-((3-fluorophenyl)ethynyl)-3-methyl-3,4,5,6-tetrahydro-1H-[1,5]diazocino[2,1-b]quinazolin-8(2H)-one], the EC50 lay within 10 to 30 nM.

For the compound `CN1CCCc2nc3cc(C#Cc4cccc(F)c4)ccc3c(=O)n2CC1` [Example 10.4, 9-((3-fluorophenyl)ethynyl)-3-methyl-3,4,5,6-tetrahydro-1H-[1,4]diazocino[8,1-b]quinazolin-12(2H)-one], the EC50 lay within 30 to 100 nM.

On to `O=C1CCc2nc3cc(C#Cc4cccc(F)c4)ccc3c(=O)n2CCN1` [Example 10.5, 9-((3-fluorophenyl)ethynyl)-2,3,5,6-tetrahydro-1H-[1,4]diazocino[8,1-b]quinazoline-4,12-dione], for which the EC50 fell in the range of 30 to 100 nM.

Consider `O=C1CCn2c(nc3cc(C#Cc4cccc(F)c4)ccc3c2=O)CCN1` [Example 10.6, 11-((3-fluorophenyl)ethynyl)-2,3,5,6-tetrahydro-1H-[1,5]diazocino[2,1-b]quinazoline-4,8-dione], for which the EC50 was in the range of 30 to 100 nM.

For `COCCn1cnc2cc(C#Cc3cccc(F)c3)cnc2c1=O` [Example 11.1, 7-((3-fluorophenyl)ethynyl)-3-(2-methoxyethyl)pyrido[3,2-d]pyrimidin-4(3H)-one], the EC50 was 30 to 100 nM.

Regarding `O=c1c2ncc(C#Cc3ccccn3)cc2nc2n1C(CO)CC2` (centres unmarked) [Example 11.3, 8-(hydroxymethyl)-3-(pyridin-2-ylethynyl)-7,8-dihydropyrido[3,2-d]pyrrolo[1,2-a]pyrimidin-10(6H)-one], the EC50 is 300 to 1000 nM.

For `CC1(C)CCc2nc3cc(C#Cc4ccccn4)cnc3c(=O)n2C1` [Example 11.5, 8,8-dimethyl-3-(pyridin-2-ylethynyl)-8,9-dihydro-6H-dipyrido[1,2-a:3′,2′-d]pyrimidin-11(7H)-one], the EC50 lay within 100 to 300 nM.

In the case of `O=c1c2ncc(C#Cc3ccccn3)cc2nc2n1CC1CCCN1C2` (centres unmarked) [Example 11.6, 3-(pyridin-2-ylethynyl)-9,10,10a,11-tetrahydro-6H-pyrido[3,2-d]pyrrolo[1′,2′:4,5]pyrazino[1,2-a]pyrimidin-13(8H)-one], the EC50 is 300 to 1000 nM.

Turning to `O=c1c2ncc(C#Cc3cccc(F)c3)cc2nc2n1CCCCC2` [Example 11.7, 3-((3-fluorophenyl)ethynyl)-7,8,9,10-tetrahydropyrido[3′,2′:4,5]pyrimido[1,2-a]azepin-12(6H)-one], the EC50 was under 10 nM.

For the compound `O=c1c2ncc(C#Cc3ccccn3)cc2nc2n1CCCCC2` [Example 11.8, 3-(pyridin-2-ylethynyl)-7,8,9,10-tetrahydropyrido[3′,2′:4,5]pyrimido[1,2-a]azepin-12(6H)-one], the EC50 lay in the range of 100 to 300 nM.

As to `CC1CCc2nc3cc(C#Cc4ccccn4)cnc3c(=O)n2CC1` (centres unmarked) [Example 11.9, 8-methyl-3-(pyridin-2-ylethynyl)-7,8,9,10-tetrahydropyrido[3′,2′:4,5]pyrimido[1,2-a]azepin-12(6H)-one], the EC50 lay in the range of 10 to 30 nM.

Values taken from patent US10077243B2, “Compounds for treating disorders mediated by metabotropic glutamate receptor 5, and methods of use thereof” (Sunovion Pharmaceuticals Inc., priority 2009, dated 2018).
